The source of these data is patent US20050124694A1, “Method of accelerating metabolism of alcohol” (priority 2003, published 2005).

The assay is described as follows: Breath sample analysis for alcohol (BAC) in volunteers after 5 glasses of wine. The format is in vivo, human. The conditions noted are these: for BAC AFTER 30 MIN.: 30 min after 5 glasses of wine on an empty stomach together with a fifty gram dose; for BAC AFTER 30 MIN. / BAC AFTER 60 MIN / BAC AFTER 90 MIN / BAC AFTER 120 MIN / BAC AFTER 150 MIN / BAC AFTER 180 MIN / BAC AFTER 210 MIN / BAC AFTER 240 MIN: breath sample; for BAC AFTER 60 MIN: 60 min after 5 glasses of wine on an empty stomach together with a fifty gram dose; for BAC AFTER 90 MIN: 90 min after 5 glasses of wine on an empty stomach together with a fifty gram dose; for BAC AFTER 120 MIN: 120 min after 5 glasses of wine on an empty stomach together with a fifty gram dose; for BAC AFTER 150 MIN: 150 min after 5 glasses of wine on an empty stomach together with a fifty gram dose; for BAC AFTER 180 MIN: 180 min after 5 glasses of wine on an empty stomach together with a fifty gram dose; for BAC AFTER 210 MIN: 210 min after 5 glasses of wine on an empty stomach together with a fifty gram dose; for BAC AFTER 240 MIN: 240 min after 5 glasses of wine on an empty stomach together with a fifty gram dose; for Effect on the consumer's BAC as measured by the test, compared with no administration: fifty gram dose with 5 glasses of wine. Here is the method:
A commercially available instrument was used to analyze breath samples provided by volunteers for alcohol. TEN volunteers each consumed 5 GLASSES OF WINE on an empty stomach together with a FIFTY GRAM dose of one or more compounds of formula (I) as tabulated below. A control group of volunteers WAS not given any of the compound. The volunteers then provided _[…] breath samples for analysis at intervals of 30 minutes. THE COMPOUNDS GIVEN AND THE SAC LEVELS READ AT EACH SAMPLING ARE TABULATED BELOW

The structures appear in SMILES notation.

Take `NC(=O)CC[C@H](N)C(=O)O` [III]: the “BAC AFTER 30 MIN.” value is given as 0.09%, the “BAC AFTER 60 MIN” value stood at 0.08%, the “BAC AFTER 90 MIN” value is recorded as 0.08% and the “BAC AFTER 120 MIN” value was determined as 0.07%. The “BAC AFTER 150 MIN” value amounted to 0.07%, the “BAC AFTER 180 MIN” value is listed as 0.05%, the “BAC AFTER 210 MIN” value came to 0.04% and the “BAC AFTER 240 MIN” value was determined as 0.03%. In addition, the “Effect on the consumer's BAC as measured by the test, compared with no administration” value is “helps to diminish the consumer's BAC as measured by the test more rapidly than without such administration”.

For `CC(=O)O[C@H](CC(=O)[O-])C[N+](C)(C)C` [compound II], the “BAC AFTER 30 MIN.” value is 0.10%, the “BAC AFTER 60 MIN” value stood at 0.09%, the “BAC AFTER 90 MIN” value came to 0.08% and the “BAC AFTER 120 MIN” value was 0.08%. The “BAC AFTER 150 MIN” value amounted to 0.07%, the “BAC AFTER 180 MIN” value worked out at 0.06%, the “BAC AFTER 210 MIN” value came out at 0.04% and the “BAC AFTER 240 MIN” value is given as 0.03%. For the same compound, the “Effect on the consumer's BAC as measured by the test, compared with no administration” value was “helps to diminish the consumer's BAC as measured by the test more rapidly than without such administration”.
